Patent US9790188B2, “Benzimidazole derivatives and uses thereof” (Whitehead Institute for Biomedical Research, priority 2013, dated 2017)
Entries after “also recorded” stand apart in the source; their conditions may differ.

Experiments:
htt72Q = test: Yeast growth rescue, htt72Q proteinopathy model; format: cell-based
Protocol: (A) Structure of lead compound ABI. (B) Dose-response curves showing the relative rescue of ABI (log2, μM) in five yeast proteinopathy models. Rescue is relative to a positive control compound as determined by growth (OD600). (C) Localization of α-syn-GFP in strains with increasing toxicity: NoTox, InTox, HiTox and HiTox treated with 10 μM ABI. […] (E) (Left panel) Western blot of α-syn-GFP in NoTox, InTox, and HiTox strains with anti-α-syn antibody. (Right panel) Quantitation of western blot (α-syn relative to total protein quantitated from a Coomassie gel and normalized to 100% for HiTo). **: P<0.01; and ***: P<0.001, according to one-way ANOVA and a Tukey's test.
Yeast strains expressing toxic proteins have been described previously (6, 9, 33, 34) (Table 1). All strains have either single or multiple inserts for galactose-inducible expression. In addition, all stains have either deletions of the Δpdr1::KanMX and Δpdr3::KanMX or Δpdr5::KanMX to reduce efflux of compounds and required compound dosing. Yeast were cultured in complete synthetic media (CSM) and an appropriate dropout (minus HIS or URA) to maintain plasmids if required. […]
Starting cultures for all dose-response assays were established as described above. […] Plates were then read with a Tecan Saphire plate reader at OD600.

reactive oxygen species = test: ROS detection (CM-H2DCFDA, flow cytometry) in α-syn yeast; format: cell-based; details: 10 μM, HiTox strain
Protocol: The generation of reactive oxygen species (ROS) detected from yeast expressing untagged α-syn using the ROS sensing dye, CM-H2DCFDA (Invitrogen), as previously described (9). Briefly, log phase raffinose cultures of α-syn (non-GFP tagged) were induced with galactose with or without ABI1 for 6 hours. At this time, the dye was added for an additional 30 minutes. Cells were then analyzed using an EasyCyte flow cytometer (Guava Technologies).

[1] = tested on: TH-positive (dopaminergic) neurons; test: Primary ventral mesencephalic cultures transduced with A53T α-syn; format: cell-based, rat; details: A53T α-syn adenovirus, 0.1 μM
Protocol: Experiments aimed at monitoring dopaminergic cell viability in primary mesencephalic cultures were performed as described previously (7-9). Briefly, cells obtained from the midbrains of E17 rat embryos were plated at a density of 2.18×10^3 cells per mm^2 on a 48-well plate. Four days after plating, the cells were treated with cytosine arabinofuranoside (20 μM) to restrict the growth of glial cells. Three days later (7 days in vitro), the cells were transduced with an adenovirus encoding A53T α-syn, generated using the Invitrogen ViraPower Adenoviral Expression System (38), at a multiplicity of infection (MOI) of 15 in the absence or presence of ABI1 (0.1 μM). After a 72-h transduction period, the media was replaced with fresh media with or without ABI1 for an additional 24 h. […] MAP2- and TH-immunoreactive neurons were counted by an investigator blinded to the identity of the treatment conditions in at least ten randomly chosen observation fields (encompassing ˜800-1600 MAP2^+ neurons) per treatment using a Nikon TE2000-U inverted fluorescence microscope with a 20× objective. Relative dopaminergic cell viability was calculated as the percentage of MAP2-positive neurons that were also TH-positive and normalized by the value determined for control cells (set to 100%). […]

α-syn foci = test: α-syn-GFP localization / foci microscopy in yeast; format: cell-based; details: α-syn-expressing yeast
Protocol: Logarithmic growing raffinose cultures were induced with galactose for five hours in the presence or absence of the indication concentration of ABI. Cells were centrifuged, media discarded, and then fixed with 4% paraformaldehyde in 1×PBS for 1 hr. The fixed culture was centrifuged, and the pellet resuspended in 0.4% paraformaldehyde in 1×PBS and kept at 4° C. Single plain images were taken at 100× magnification with a Nikon Eclipse Ti microscope.

aSyn^A53T iPS neurons = test: Nitrosative stress (NO sensor FL2) in patient iPS neurons; details: human cortical neurons from iPSCs of a patient carrying α-syn mutations
Excerpt: Nitrosative stress was monitored by protein nitration levels using the 3-NT antibody. […] All data represented as mean±SEM (*: p<0.05; **: p<0.01, two tail t-test compared to control condition).

WT yeast [2] = test: Growth inhibition of wild-type yeast (dose-response); format: cell-based; details: at concentrations higher than those that rescue α-syn toxicity
Protocol: Source plates were assembled in 96 well plates using multichannel pipettes to dilute rows in 1.6-fold serial dilutions of CSMGal. […] For α-syn, the final starting OD600 was 0.02. Drug concentration ranges varied depending on efficacy, growth inhibition, and solubility in media. A Tecan EvoFreedom liquid handling robot was then used to transfer culture from 96 to 384 well format with each well being represented four times. Final well volume was 35 μL. Plates were then incubated in humidified containers at 30° C. for either 24 or 40 hours. Plates were then read with a Tecan Saphire plate reader at OD600.
Raw OD600 values were transformed to “Relative Growth” in WT cells or “% Maximum Rescue” in α-syn experiments. In WT cells, the well background was subtracted and all values were then normalized to 100% for the untreated condition. In α-syn rescue experiments, the well background was subtracted and the maximum rescue in the particular experiment was normalized to 100%.

WT yeast [3] = test: Viable cells recovered after prolonged treatment at growth inhibitory concentrations

Cc1cccc(-n2cnc3cc(C(=O)NCc4ccccc4Cl)ccc32)c1 [ABI, N-(2-chlorobenzyl)-1-(m-tolyl)-1H-benzo[d]imidazole-5-carboxamide]
efficacy against htt72Q (htt72Q): not, however, effective | generation of reactive oxygen species (% of ROS-positive cells) (reactive oxygen species): completely abolished; also recorded: reduced the % of ROS-positive cells | retraction of neuronal processes / neurite length [1]: markedly reduced the retraction of neuronal processes; also recorded: reversed | survival of TH-positive neurons (% of MAP2-positive neurons) [1]: largely restored the survival; also recorded: reversed | accumulation of cytoplasmic α-syn foci / inclusions (α-syn foci): prevented the accumulation of cytoplasmic α-syn foci | nitrosative stress (aSyn^A53T iPS neurons): reduced nitrosative stress | growth inhibition of wild-type cells (WT yeast [2]): inhibited the growth of wild-type cells | viability of cells (WT yeast [3]): retained full viability
